Publication PMC10894092, “Characterization of a recombinant Aspergillus niger GZUF36 lipase immobilized by ionic liquid modification strategy” (Applied Microbiology and Biotechnology, 2024)

Test system: T1, PEXANL1
T1 construct: gene EXANL1; recombinant extracellular lipase, secreted/purified from Pichia pastoris GS115
Test: p-nitrophenol release at […] nm, Lineweaver-Burk
Type: biochemical, Aspergillus niger
Settings: free enzyme; pH 5.0, 45 °C; 5-30 mM substrate range; phosphate-citrate buffer, substrate stock in 2-propanol

- Km: 2.65 mM
SMILES: CCCCCCCCCCCCCCCC(=O)Oc1ccc([N+](=O)[O-])cc1 [p-nitrophenyl palmitate]
